From ChEMBL document CHEMBL1152634, “Synthesis and evaluation of novel alpha-heteroaryl-phenylpropanoic acid derivatives as PPARalpha/gamma dual agonists” (Bioorg Med Chem, 2009)

Tests used:
[1] = Clearance in rat at 1 mg/kg, iv; type: ADME, organism-based; design: dose 1 mg/kg, route intravenous; details: in vivo
[2] = AUC in dog at 1 mg/kg, iv; type: ADME, organism-based, Canis lupus familiaris; design: dose 1 mg/kg, route intravenous; details: plasma
[3] = Clearance in dog at 1 mg/kg, iv; type: ADME, organism-based, Canis lupus familiaris; design: dose 1 mg/kg, route intravenous; details: in vivo
[4] = AUC in rat at 1 mg/kg, iv; type: ADME, organism-based; design: dose 1 mg/kg, route intravenous; details: plasma
[5] = Half life in dog at 1 mg/kg, iv; type: ADME, organism-based, Canis lupus familiaris; design: dose 1 mg/kg, route intravenous; details: in vivo
[6] = AUC in dog at 3 mg/kg, po; type: ADME, organism-based, Canis lupus familiaris; design: dose 3 mg/kg, route oral; details: plasma
[7] = Volume of distribution at steady state in dog at 1 mg/kg, iv; type: ADME, organism-based, Canis lupus familiaris; design: dose 1 mg/kg, route intravenous; details: in vivo, read-out: Vdss
[8] = Oral bioavailability in rat at 3 mg/kg, po; type: ADME, organism-based; details: in vivo
[9] = Oral bioavailability in dog at 3 mg/kg, po; type: ADME, organism-based, Canis lupus familiaris; details: in vivo
[10] = Volume of distribution at steady state in rat at 1 mg/kg, iv; type: ADME, organism-based; design: dose 1 mg/kg, route intravenous; details: in vivo, read-out: Vdss
[11] = AUC in rat at 3 mg/kg, po; type: ADME, organism-based; design: dose 3 mg/kg, route oral; details: plasma
[12] = Half life in rat at 1 mg/kg, iv; type: ADME, organism-based; design: dose 1 mg/kg, route intravenous; details: in vivo

clearance [1]: 18 mL/min/kg | AUC [2]: 3970 ng·h/mL | clearance [3]: 4.4 mL/min/kg | AUC [4]: 928 ng·h/mL | half-life [5]: 5.8 h | AUC [6]: 13000 ng·h/mL | Vd [7]: 0.82 L/kg | bioavailability [8]: 42% | bioavailability [9]: > 95% | Vd [10]: 2.9 L/kg | AUC [11]: 1170 ng·h/mL | half-life [12]: 7.5 h
SMILES: Cc1oc(-c2ccccc2)nc1CCCc1ccc(C[C@@H](C(=O)O)n2nccn2)cc1
